Drawing on patent publication US6541480B2, “1-aryl-1,8-naphthylidin-4-one derivative as type IV phosphodiesterase inhibitor” (Suntory Limited, priority 1997, dated 2003), this text covers IC50 for 29 molecules.

Where a name gives a salt, the structure may show the parent alone.

Assay [1] deals with TNF-α production by LPS stimulated mouse peritoneal macrophages. Description: TNF-α production inhibitory activity by LPS stimulated macrophages (ELISA). Type of assay: cell-based. The following applies: LPS 10 μg/ml, 8 hours. As to the method: (1) Method of Measurement of TNF-α Production Inhibitory Activity by LPS Stimulated Macrophages
The following assay was used to evaluate the ability of the compound of the present invention to suppress TNF-α production by LPS stimulated macrophages according to Immuno pharmacol. 29, 121-127 (1995).
1) 6 to 10 week old female BALB/c mice were used, 2 ml portions of thioglycolate were intraperitoneally administered, and the abdominal cavities were washed by 10 ml of PBS after 4 days, whereby 1 to 2×10^7 peritoneal cells were obtained per mouse. These were suspended in a hemocyte solution (0.75% ammonium chloride, 17 mM tris-hydrochlorate buffer, pH7.2), centrifuged, then resuspended in an RPMI1640 medium including 10% fetal calf serum and seeded in a 96-well cell culture plate at a density of 1×10^5 cells/50 μl/well. Since these cells adhered strongly to the tissue culture plate and were positive in nonspecific esterase staining, they were used for the test as mouse peritoneal macrophages. Mouse peritoneal macrophages were precultured overnight at 37° C. in 5% CO2 for the experiment.
2) E. Coli (serum type 055:B5) derived LPS was dissolved in PBS in a concentration of 1 mg/ml, then sterilized by filtration. The test compound was dissolved in DMSO to make a 1000-fold concentration solution of the final concentration of use. 10 μl of the above LPS stock solution (final concentration 10 μg/ml) and 1 μl of the tested substance stock solution were added and mixed in 0.5 ml of RPMI1640 medium containing 10% fetal calf serum. This was added to the above cells at 50 μl/well and cultured for 8 hours. The cultured supernatant was recovered from each well and the TNF-α concentration was measured by the ELISA method (Cytoscreen® Immunoassay Kit Mouse TNF-α, BioSource International).
(ELISA stands for enzyme-linked immunosorbent assay.)

The subject of assay [2] is type IV phosphodiesterase. The assay can be described thus: Type IV phosphodiesterase inhibiting activity (3H-cAMP hydrolysis, PDE IV fraction from U937 cells). It counts as biochemical. The following applies: PDE IV fraction from human U937 cells, 30° C., 30 minutes. Here is the method: (1) Method of Measurement of Type IV Phosphodiesterase Inhibiting Activity
The following assay was used to evaluate the ability of the compound of the present invention to suppress type IV phosphodiesterase, according to Biochemical.
1) Type IV phosphodiesterase activity fractions were prepared as follows. Human histiocytic lymphoma cell line U937 was cultured in an RPMI1640 medium containing 10% fetal calf serum to obtain 10^9 cells of U937. The cells were recovered by centrifugation and suspended in 40 ml of buffer A (20 mM bis-tris, 5 mM 2-mercaptoethanol, 2 mM benzamidine, 2 mM EDTA, 0.1 mM 4-(2-aminoethyl)benzensulfonyl hydrochloride, 50 mM sodium acetate, pH=6.5). The cells were broken by a sonication and centrifuged (4° C., 10,000G, 10 minutes) to obtain a supernatent. This was filtered by a 0.45 μm filter to obtain the soluble fraction.
The soluble fraction obtained was applied into a 1×10 cm DEAE Sepharose column equalibrated with the buffer A. 120 ml of the buffer A containing a linear gradient solution of 0.05 to 1 M sodium acetate was used to separate the phosphodiesterase and recover 24 5-ml fractions. Each of the fractions was measured for the cAMP phosphodiesterase activity.
2) The test compound was reacted at a desired concentration in a reaction mixture containing 20 mM tris-HCl (pH 7.5), 1 mM MgCl2, 100 μM EDTA, 330 μg/ml calf serum albumin, 10 μg/ml 5′-nucleotidase, 0.4 μCi ^3H-cAMP ([…] cAMP) and the type IV phosphodiesterase stored solution at 30° C. for 30 minutes. QAE-Sephadex suspended in 10 mM of hepes-Na (pH-7.0) was added to the reaction mixture which was then allowed to stand for 5 minutes, then the supernatant was obtained, QAE-Sephadex was further added, to the supernatant, and was allowed to stand for 5 minutes, then the supernatant was obtained and measured for radioactivity.

As for `CCn1cc(C(=O)NCCc2ccncc2)c(=O)c2ccc(C)nc21` [Comp. Ex., N-(2-(4-pyridyl)ethyl)-1-ethyl-7-methyl-1,4-dihydro[1,8]naphthylidin-4-one-3-carboxyamide, reference compound], the results for the IC50 in assay [1] (Peritoneal macrophage) and in assay [2] were 10000 nM and 5200 nM, respectively. As to `CCOC(=O)c1cn(-c2cccc([N+](=O)[O-])c2)c2ncccc2c1=O` [Example 19, Ethyl 1-(3-Nitrophenyl)-1,4-dihydro[1,8]naphthylidin-4-one-3-carboxylate], the IC50 – broadly, the midpoint of a concentration-inhibition curve – in assay [2] came to 930 nM. The same measure, in the same setting: under `CCOC(=O)c1cn(-c2cccc(C(C)=O)c2)c2ncccc2c1=O` [Example 24, Ethyl 1-(3-Acetophenyl)-1,4-dihydro[1,8]naphthylidin-4-one-3-carboxylate] stands 600 nM. With `NC(=O)c1cn(-c2ccc(F)cc2)c2ncccc2c1=O` [Example 51, 1-(4-Fluorophenyl)-1,4-dihydro[1,8]naphthylidin-4-one-3-carboxamide], the results for the IC50 in assay [1] (Peritoneal macrophage) and in assay [2] were 400 nM and 1400 nM, respectively.

As for `CNC(=O)c1cn(-c2ccc(F)cc2)c2ncccc2c1=O` [Example 52, 1-(4-Fluorophenyl)-N-methyl-1,4-dihydro[1,8]naphthylidin-4-one-3-carboxamide], the concentration for half-maximal inhibition (IC50) in assay [2] came out at 150 nM. As to `CC(C)NC(=O)c1cn(-c2ccc(F)cc2)c2ncccc2c1=O` [Example 53, 1-(4-Fluorophenyl)-N-isopropyl-1,4-dihydro[1,8]naphthylidin-4-one-3-carboxamide], the IC50 in assay [1] (Peritoneal macrophage) turned out to be 10 nM; in assay [2] it was 27 nM.

As for `C=CCNC(=O)c1cn(-c2ccc(F)cc2)c2ncccc2c1=O` [Example 54, N-allyl-1-(4-fluorophenyl)-1,4-dihydro[1,8]naphthylidin-4-one-3-carboxamide], the results for the IC50 in assay [1] (Peritoneal macrophage) and in assay [2] were 100 nM and 35 nM, respectively. In the case of `CC(C)CNC(=O)c1cn(-c2ccc(F)cc2)c2ncccc2c1=O` [Example 55, 1-(4-Fluorophenyl)-N-isobutyl-1,4-dihydro[1,8]naphthylidin-4-one-3-carboxamide], the figures for the IC50 in assay [1] (Peritoneal macrophage) and in assay [2] were 100 nM and 31 nM, respectively. As to `O=C(NCC1CC1)c1cn(-c2ccc(F)cc2)c2ncccc2c1=O` [Example 56, N-cyclopropylmethyl-1-(4-fluorophenyl)-1,4-dihydro[1,8]naohthylidin-4-one-3-carboxamide], the IC50 in assay [1] amounted to 4 nM; in assay [2] it was 26 nM. Consider `O=C(NC1CCCCC1)c1cn(-c2ccc(F)cc2)c2ncccc2c1=O` [Example 57, N-cyclohexyl-1-(4-fluorophenyl)-1,4-dihydro[1,8]naohthylidin-4-one-3-carboxamide], for which the figures for the IC50 in assay [1] (Peritoneal macrophage) and in assay [2] were 1000 nM and 710 nM, respectively. For the molecule `O=C(NCCO)c1cn(-c2ccc(F)cc2)c2ncccc2c1=O` [Example 58, 1-(4-Fluorothenyl)-N-(2-hydroxyethyl)-1,4-dihydro[1,8]naphthylidin-4-one-3-carboxamide], the IC50 in assay [1] (Peritoneal macrophage) and in assay [2] was 420 nM throughout. In assay [2], `COCCNC(=O)c1cn(-c2ccc(F)cc2)c2ncccc2c1=O` [Example 59, 1-(4-fluorophenyl)-N-(2-methoxyethyl)-1,4-dihydro[1,8]naphthylidin-4-one-3-carboxamide] returned an IC50 of 640 nM. Take `O=C(NCc1ccccc1)c1cn(-c2ccc(F)cc2)c2ncccc2c1=O` [Example 61, N-benzyl-1-(4-fluorophenyl)-1,4-dihydro[1,8]naphthylidin-4-one-3-carboxamide]: the values for the IC50 in assay [1] (Peritoneal macrophage) and in assay [2] were 1000 nM and 390 nM, respectively.

On to `O=C(NCc1ccccn1)c1cn(-c2ccc(F)cc2)c2ncccc2c1=O` [Example 62, 1-(4-Fluorophenyl)-N-(2-pyridyl)methyl-1,4-dihydro[1,8]naphthylidin-4-one-3-carboxamide], for which inhibition in assay [2] was half-maximal at 1600 nM (IC50). Still for that read-out and setting: under `O=C(NCc1cccnc1)c1cn(-c2ccc(F)cc2)c2ncccc2c1=O` [Example 63, 1-(4-Fluorophenyl)-N-(3-pyridyl)methyl-1,4-dihydro[1,8]naphthylidin-4-one-3-carboxamide] stands 1200 nM. In turn, `COc1ccccc1NC(=O)c1cn(-c2ccc(F)cc2)c2ncccc2c1=O` [Example 76, 1-(4-Fluorohenyl)-N-(2-methoxyphenyl)-1,4-dihydro[1,8]naphthylidin-4-one-3-carboxamide] displayed an IC50 in assay [2] of 500 nM.

Molecule `CCOC(=O)c1cccc(NC(=O)c2cn(-c3ccc(F)cc3)c3ncccc3c2=O)c1` [Example 85, Ethyl 3-[{[1-(4-Fluorophenyl)-1,4-dihydro[1,8]naphthylidin-4-one-3-yl]carbonyl}amino]benzoate] gave an IC50 in assay [2] of 550 nM.

`N=C(N)c1cccc(NC(=O)c2cn(-c3ccc(F)cc3)c3ncccc3c2=O)c1` [Example 97, N-(benzamidin-3-yl)-1-(4-fluorophenyl)-1,4-dihydro[1,8]naphthylidin-4-one-3-carboxamide hydrochloride]: the midpoint of inhibition in assay [2], the IC50, lay at 470 nM. In assay [2], `O=C(Nc1ccccc1-c1ccccc1)c1cn(-c2ccc(F)cc2)c2ncccc2c1=O` [Example 100, N-(2-Biphenyl)-1-(4-fluorophenyl)-1,4-dihydro[1,8]naphthylidin-4-one-3-carboxamide] had an IC50 of 650 nM.

In assay [2], `Cc1ccc(-n2cc(C(=O)Nc3ccncc3)c(=O)c3cccnc32)cc1` [Example 120, N-(4-Pyridyl)-1-(4-tolyl)-1,4-dihydro[1,8]naphthylidin-4-one-3-carboxamide] showed an IC50 of 99 nM.

In turn, `Cc1ccc(-n2cc(C(=O)Nc3c(Cl)cncc3Cl)c(=O)c3cccnc32)cc1` [Example 121, N-(3,5-Dichloroiyridin-4-yl)-1-(4-tolyl)-1,4-dihydro[18]naphthylidin-4-one-3-carboxamide] gave an IC50 in assay [2] of 3.1 nM. On the same count and under the same terms, as for `COc1ccc(-n2cc(C(=O)Nc3c(Cl)cncc3Cl)c(=O)c3cccnc32)cc1` [Example 123, N-(3,5-Dichloropyridin-4-yl)-1-(4-methoxyphenyl)-1,4-dihydro[1,8]naphthyldin-4-one-3-carboxamide], the figure is 0.6 nM; as for `O=C(Nc1ccncc1)c1cn(-c2ccc(Cl)cc2)c2ncccc2c1=O` [Example 124, 1-(4-Chlorophenyl)-N-(4-pyridyl)-1,4-dihydro[1,8]naphthylidin-4-one-3-carboxamide], 110 nM; as for `N=C(N)c1cccc(-n2cc(C(=O)Nc3ccncc3)c(=O)c3cccnc32)c1` [Example 130, 1-(Benzamidin-3-yl)-N-(4-pyridyl)-1,4-dihydro[1,8]naphthylidin-4-one-3-carboxamide], 260 nM.

In turn, `O=C(Nc1cccnc1)c1cn(-c2ccccn2)c2ncccc2c1=O` [Example 131, 1-(2-Pyridyl)-N-(3-pyridyl)-1,4-dihydro[1,8]naphthylidin-4-one-3-carboxamide] displayed an IC50 in assay [2] of 590 nM. `O=C(Nc1ccncc1)c1cn(-c2ccc(O)nc2)c2ncccc2c1=O` [Example 145, 1-(2-Hydroxypyridin-5-yl)-N-(4-pyridyl)-1,4-dihydro[1,8]naphthylidin-4-one-3-carboxamide] gave an IC50 in assay [2] of 400 nM. Regarding `O=C(Nc1ccncc1)c1cn(-c2cccc3cccnc23)c2ncccc2c1=O` [Example 149, 1-(8-Quinonyl)-N-(4-pyridyl)-1,4-dihydro[1,8]naphthylidin-4-one-3-carboxamide], in assay [2], the IC50 is 940 nM. Molecule `CC(C)(C)OC(=O)Nc1ncc(-n2cc(C(=O)Nc3ccncc3)c(=O)c3cccnc32)cn1` [Example 150, 1-(2-tert-Butyloxycarbonylaminopyrimidin-5-yl)-N-(4-pyridyl)-1,4-dihydro[1,8]naphthylidin-4-one-3-carboxamide] showed an IC50 in assay [1] of 400 nM. In turn, `COc1ccc(C2CNC(=O)C2)cc1OC1CCCC1` (centres unmarked) [Rolipram, reference compound] showed an IC50 in assay [1] (Peritoneal macrophage) of 100 nM.
